Results on 22 molecules are retold here after patent US20250388589A1, “TRICYCLIC HETEROCYCLIC DERIVATIVES, COMPOSITIONS AND USES THEREOF” (Danatlas Pharmaceuticals Co., Ltd., priority 2022, published 2025).

Assay [1] deals with hPARG (C-terminal His6-tag) (Homo sapiens (Human), UniProt Q86W56). Kind of assay: PARG Enzymatic Activity Assay (HTRF). The format is biochemical. The settings on record: hPARG 65 pM final, biotinylated-NAD ribosylated PARP1 8 nM final. A digest of the protocol: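 E. coli-expressed enzyme (65 pM final) preincubated 60 min RT with compounds (10-point 4-fold dilution, duplicate) in 50 mM Tris pH 7.4, 3 mM EDTA, 1 mM DTT, 50 mM KCl, 0.01% Tween 20. Biotinylated-NAD ribosylated PARP1 substrate (8 nM final) reacted 10 min RT; Eu-streptavidin/anti-6HIS-XL665 HTRF read 665/620 nm after 60 min. IC50 from 4-parameter Hill fit.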

For another assay, the system named is Kuramochi cell line. Kind of assay: Cell Viability Assay (Cell Titer-Glo, 7 days). The format is cell-based. To be noted: 168 h, Kuramochi cells, 7 days incubation, read-out: PARG Cell viability (IC50). A digest of the protocol:
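Kuramochi cells in RPMI with 10% FBS, seeded at 400 cells/well, were treated with a 9-point 3-fold dilution series in duplicate for 7 days at 37 °C, 5% CO2. Viability by CellTiter-Glo luminescence, normalised to DMSO and medium-only controls; IC50 from 4-parameter Hill fit.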

hPARG (C-terminal His6-tag), sequence (Q86W56 whole entry): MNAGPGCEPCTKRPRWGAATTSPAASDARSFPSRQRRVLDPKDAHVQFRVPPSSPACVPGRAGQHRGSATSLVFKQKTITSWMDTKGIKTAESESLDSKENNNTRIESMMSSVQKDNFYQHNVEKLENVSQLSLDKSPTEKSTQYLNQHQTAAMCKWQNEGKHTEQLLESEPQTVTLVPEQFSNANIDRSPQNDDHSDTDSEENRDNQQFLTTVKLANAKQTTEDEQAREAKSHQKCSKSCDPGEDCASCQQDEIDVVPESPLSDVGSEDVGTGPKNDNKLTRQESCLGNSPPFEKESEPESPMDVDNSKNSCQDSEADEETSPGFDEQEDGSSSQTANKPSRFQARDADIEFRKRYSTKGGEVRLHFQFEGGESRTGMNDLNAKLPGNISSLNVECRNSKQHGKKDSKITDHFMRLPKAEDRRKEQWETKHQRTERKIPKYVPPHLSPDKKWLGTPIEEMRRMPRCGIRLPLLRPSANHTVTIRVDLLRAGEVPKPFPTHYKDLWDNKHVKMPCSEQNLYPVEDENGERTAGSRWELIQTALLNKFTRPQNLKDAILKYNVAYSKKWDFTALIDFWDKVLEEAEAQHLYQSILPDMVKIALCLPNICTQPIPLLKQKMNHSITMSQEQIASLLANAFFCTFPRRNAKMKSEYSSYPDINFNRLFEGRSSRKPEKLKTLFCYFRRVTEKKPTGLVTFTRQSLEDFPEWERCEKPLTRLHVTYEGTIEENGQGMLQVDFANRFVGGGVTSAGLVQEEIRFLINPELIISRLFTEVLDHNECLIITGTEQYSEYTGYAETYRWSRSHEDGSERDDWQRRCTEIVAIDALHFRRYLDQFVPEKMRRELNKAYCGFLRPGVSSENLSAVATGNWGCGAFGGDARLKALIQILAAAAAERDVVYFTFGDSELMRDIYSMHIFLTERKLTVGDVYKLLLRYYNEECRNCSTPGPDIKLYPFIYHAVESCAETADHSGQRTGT

Broadly, the IC50 is the midpoint of a concentration-inhibition curve. For the molecule `CC(C)C(=O)N1[C@H](C)CN(c2ncnc3c2c2ccc(S(=O)(=O)NC4(C#N)CC4)cc2n3-c2nnc(C(F)F)s2)C[C@@H]1C` [Example 62, N-(1-Cyanocyclopropyl)-9-(5-(difluoromethyl)-1,3,4-thiadiazol-2-yl)-4-((3S,5R)-4-isobutyryl-3,5-dimethylpiperazin-1-yl)-9H-pyrimido[4,5-b]indole-7-sulfonamide], the IC50 (in assay [1]; in the assay with Kuramochi cell line) was below 100 nM each time.

Take `N#CC1(NS(=O)(=O)c2ccc3c4c(N5C6CCC5COC6)ncnc4n(-c4nnc(C(F)F)s4)c3c2)CC1` [Example 210, 4-(3-Oxa-8-azabicyclo[3.2.1]octan-8-yl)-N-(1-cyanocyclopropyl)-9-(5-(difluoromethyl)-1,3,4-thiadiazol-2-yl)-9H-pyrimido[4,5-b]indole-7-sulfonamide]: the IC50 (in assay [1]; in the assay with Kuramochi cell line) was below 100 nM each time.

In the case of `N#CC1(NS(=O)(=O)c2ccc3c4c(C5CCN(C(=O)N6CC[C@H](O)C6)CC5)ncnc4n(-c4nnc(C(F)F)s4)c3c2)CC1` [Example 130, (S)—N-(1-Cyanocyclopropyl)-9-(5-(difluoromethyl)-1,3,4-thiadiazol-2-yl)-4-(1-(3-hydroxypyrrolidine-1-carbonyl)piperidin-4-yl)-9H-pyrimido[4,5-b]indole-7-sulfonamide], the figures for the IC50 (in assay [1]; with Kuramochi cell line) were below 100 nM and 100 to 1000 nM, respectively.

For the molecule `N#CC1(NS(=O)(=O)c2ccc3c4c(N5CCC(N6CCC6)[C@@H](F)C5)ncnc4n(-c4nnc(C(F)F)s4)c3c2)CC1` (stereo partly drawn) [Example 208, 4-((3S)-4-(Azetidin-1-yl)-3-fluoropiperidin-1-yl)-N-(1-cyanocyclopropyl)-9-(5-(difluoromethyl)-1,3,4-thiadiazol-2-yl)-9H-pyrimido[4,5-b]indole-7-sulfonamide], the IC50 (in assay [1]; in the assay on Kuramochi cell line) was below 100 nM each time.

Turning to `CC(C)C(=O)N1C2CCC1CN(c1ncnc3c1c1ccc(S(=O)(=O)NC4(C#N)CC4)cc1n3-c1nnc(C(F)F)s1)C2` [Example 24, N-(1-Cyanocyclopropyl)-9-[5-(difluoromethyl)-1,3,4-thiadiazol-2-yl]-4-[8-(2-methylpropanoyl)-3,8-diazabicyclo[3.2.1]octan-3-yl]pyrimido[4,5-b]indole-7-sulfonamide], the IC50 is below 100 nM in assay [1] and 100 to 1000 nM in the assay on Kuramochi cell line.

For `N#CC1(NS(=O)(=O)c2ccc3c4c(C5CCN(C(=O)[C@@H]6CCCO6)CC5)ncnc4n(-c4nnc(C(F)F)s4)c3c2)CC1` [Example 111, (S)-N-(1-cyanocyclopropyl)-9-(5-(difluoromethyl)-1,3,4-thiadiazol-2-yl)-4-(1-(tetrahydrofuran-2-carbonyl)piperidin-4-yl)-9H-pyrimido[4,5-b]indole-7-sulfonamide], the IC50 (in assay [1]; in the assay with Kuramochi cell line) was below 100 nM each time.

As for `N#CC1(NS(=O)(=O)c2ccc3c4c(N5CCN(c6nccs6)CC5)ncnc4n(-c4nnc(C(F)F)s4)c3c2)CC1` [Example 16, N-(1-Cyanocyclopropyl)-9-(5-(difluoromethyl)-1,3,4-thiadiazol-2-yl)-4-(4-(thiazol-2-yl)piperazin-1-yl)-9H-pyrimido[4,5-b]indole-7-sulfonamide], the IC50 (in assay [1]; with Kuramochi cell line) was 100 to 1000 nM throughout.

On to `CN1CCN(C(=O)N2CCC(c3ncnc4c3c3ccc(S(=O)(=O)NC5(C#N)CC5)cc3n4-c3nnc(C(F)F)s3)CC2)CC1` [Example 141, N-(1-cyanocyclo-propyl)-9-(5-(difluoromethyl)-1,3,4-thiadiazol-2-yl)-4-(1-(4-methylpiperazine-1-carbonyl)piperidin-4-yl)-9H-pyrimido [4,5-b]indole-7-sulfonamide], for which the IC50 in assay [1] is below 100 nM; with Kuramochi cell line, 100 to 1000 nM.

As for `COCCN(C)C(=O)N1CCC(c2ncnc3c2c2ccc(S(=O)(=O)NC4(C#N)CC4)cc2n3-c2nnc(C(F)F)s2)CC1` [Example 144, 4-(7-(N-(1-cyanocyclo-propyl)sulfamoyl)-9-(5-(difluoromethyl)-1,3,4-thiadiazol-2-yl)-9H-pyrimido[4,5-b]indol-4-yl)-N-(2-methoxyethyl)-N-methylpiperidine-1-carboxamide], the IC50 (in assay [1]; with Kuramochi cell line) was below 100 nM each time.

Turning to `N#CC1(NS(=O)(=O)c2ccc3c4c(N5CCCOCC5)ncnc4n(-c4nnc(C(F)F)s4)c3c2)CC1` [Example 170, N-(1-Cyanocyclopropyl)-9-(5-(difluoromethyl)-1,3,4-thiadiazol-2-yl)-4-(1,4-oxazepan-4-yl)-9H-pyrimido[4,5-b]indole-7-sulfonamide], the IC50 (in assay [1]; with Kuramochi cell line) was below 100 nM throughout.

As for `N#CC1(NS(=O)(=O)c2ccc3c4c(C5CCN(C(=O)N6CCCO6)CC5)ncnc4n(-c4nnc(C(F)F)s4)c3c2)CC1` [Example 139], the IC50 (in assay [1]; with Kuramochi cell line) was below 100 nM throughout.

Consider `N#CC1(NS(=O)(=O)c2ccc3c4c(N5CC6CC(C5)O6)ncnc4n(-c4nnc(C(F)F)s4)c3c2)CC1` [Example 176, 4-(6-oxa-3-azabicyclo[3.1.1]heptan-3-yl)-N-(1-cyanocyclopropyl)-9-(5-(difluoromethyl)-1,3,4-thiadiazol-2-yl)-9H-pyrimido[4,5-b]indole-7-sulfonamide], for which the IC50 (in assay [1]; in the assay with Kuramochi cell line) was below 100 nM throughout.

For the molecule `N#CC1(NS(=O)(=O)c2ccc3c4c(N5CCN(C(=O)c6ccc(F)cc6)CC5)ncnc4n(-c4nnc(C(F)F)s4)c3c2)CC1` [Example 13, N-(1-Cyanocyclopropyl)-9-(5-(difluoromethyl)-1,3,4-thiadiazol-2-yl)-4-(4-(4-fluorobenzoyl)piperazin-1-yl)-9H-pyrimido[4,5-b]indole-7-sulfonamide], the IC50 (in assay [1]; with Kuramochi cell line) was 100 to 1000 nM throughout.

`N#CC1(NS(=O)(=O)c2ccc3c4c(N5CCN(c6cccnn6)CC5)ncnc4n(-c4nnc(C(F)F)s4)c3c2)CC1` [Example 19, N-(1-Cyanocyclopropyl)-9-(5-(difluoromethyl)-1,3,4-thiadiazol-2-yl)-4-(4-(pyridazin-3-yl)piperazin-1-yl)-9H-pyrimido[4,5-b]indole-7-sulfonamide]: the IC50 was below 100 nM in assay [1] and 100 to 1000 nM in the assay on Kuramochi cell line.

For `CN1CCN(c2ncnc3c2c2ccc(S(=O)(=O)NC4(C#N)CC4)cc2n3-c2nnc(C(F)F)s2)CC1` [Example 56, N-(1-Cyanocyclopropyl)-9-(5-(difluoromethyl)-1,3,4-thiadiazol-2-yl)-4-(4-methylpiperazin-1-yl)-9H-pyrimido[4,5-b]indole-7-sulfonamide], the IC50 (in assay [1]; with Kuramochi cell line) was below 100 nM in each case.

Take `CO[C@@H](C)C(=O)N1CCC(c2ncnc3c2c2ccc(S(=O)(=O)NC4(C)CC4)cc2n3-c2nnc(C(F)F)s2)CC1` [Example 96, (S)-9-(5-(Difluoromethyl)-1,3,4-thiadiazol-2-yl)-4-(1-(2-methoxypropanoyl)piperidin-4-yl)-N-(1-methylcyclopropyl)-9H-pyrimido[4,5-b]indole-7-sulfonamide]: the IC50 (in assay [1]; with Kuramochi cell line) was below 100 nM each time.

Turning to `CN(C)C(=O)N1CCC(c2ncnc3c2c2cc(F)c(S(=O)(=O)NC4(C)CC4)cc2n3-c2nnc(C(F)F)s2)CC1` [Example 82, 4-(9-(5-(Difluoromethyl)-1,3,4-thiadiazol-2-yl)-6-fluoro-7-(N-(1-methylcyclopropyl)sulfamoyl)-9H-pyrimido[4,5-b]indol-4-yl)-N,N-dimethylpiperidine-1-carboxamide], the IC50 (in assay [1]; in the assay with Kuramochi cell line) was below 100 nM each time.

For `COC[C@H]1CN(c2ncnc3c2c2ccc(S(=O)(=O)NC4(C#N)CC4)cc2n3-c2nnc(C(F)F)s2)CCN1C` [Example 204, (R)—N-(1-Cyanocyclopropyl)-9-(5-(difluoromethyl)-1,3,4-thiadiazol-2-yl)-4-(3-(methoxymethyl)-4-methylpiperazin-1-yl)-9H-pyrimido[4,5-b]indole-7-sulfonamide], the IC50 (in assay [1]; in the assay with Kuramochi cell line) was below 100 nM throughout.

`C[C@@H]1CN(C(=O)N(C)C)[C@@H](C)CN1c1ncnc2c1c1cc(F)c(S(=O)(=O)NC3(C#N)CC3)cc1n2-c1nnc(C(F)F)s1` [Example 45, (2S,5R)-4-(7-(N-(1-Cyanocyclopropyl)sulfamoyl)-9-(5-(difluoromethyl)-1,3,4-thiadiazol-2-yl)-6-fluoro-9H-pyrimido[4,5-b]indol-4-yl)-N,N,2,5-tetramethylpiperazine-1-carboxamide]: the IC50 (in assay [1]; with Kuramochi cell line) was below 100 nM in each case.

With `C[C@@H]1CO[C@@H](C)CN1c1ncnc2c1c1ccc(S(=O)(=O)NC3(C#N)CC3)cc1n2-c1nnc(C(F)F)s1` [Example 200, N-(1-Cyanocyclopropyl)-9-(5-(difluoromethyl)-1,3,4-thiadiazol-2-yl)-4-((2S,5R)-2,5-dimethylmorpholino)-9H-pyrimido[4,5-b]indole-7-sulfonamide], the IC50 (in assay [1]; in the assay on Kuramochi cell line) was below 100 nM each time.

Take `N#CC1(NS(=O)(=O)c2ccc3c4c(N5CCN(c6ccccn6)CC5)ncnc4n(-c4nnc(C(F)F)s4)c3c2)CC1` [Example 17, N-(1-Cyanocyclopropyl)-9-(5-(difluoromethyl)-1,3,4-thiadiazol-2-yl)-4-(4-(pyridin-2-yl)piperazin-1-yl)-9H-pyrimido[4,5-b]indole-7-sulfonamide]: the IC50 (in assay [1]; with Kuramochi cell line) was 100 to 1000 nM in each case.

With `CO[C@H]1CCN(C(=O)N2CCC(c3ncnc4c3c3ccc(S(=O)(=O)NC5(C#N)CC5)cc3n4-c3nnc(C(F)F)s3)CC2)C1` [Example 134, (S)—N-(1-Cyanocyclopropyl)-9-(5-(difluoromethyl)-1,3,4-thiadiazol-2-yl)-4-(1-(3-methoxypyrrolidine-1-carbonyl)piperidin-4-yl)-9H-pyrimido[4,5-b]indole-7-sulfonamide], the IC50 (in assay [1]; in the assay with Kuramochi cell line) was below 100 nM throughout.
